Data published in article PMC10696740 (BMC Biology, 2023).
“And” between values parts separate entries of the source, which are not always exact repeats. Equal values may be shown once. “Also recorded” adds a separate entry of the source. Read-outs that look alike come from different tables or passages of the source.

Columns and labels:
[1] = system: Lactococcus lactis DSM 20481; test: Growth inhibition of CRC pathogenic bacteria by BBR; conditions: L. lactis DSM 20481; 0.3 mM and 0.6 mM BBR
PaFtfL Y229A/F383A/W411A = format: binding, P. anaerobius; conditions: BLI, tri-mutant
Experimental: (§1) A streptavidin matrix-coated sensor chip (SA chip) was firstly equilibrated with buffer A (lysis buffer with 0.05% Tween 20) followed with the immobilization BBP (200 μM) on the SA chip. Next, proteins with increasing concentrations (0.23, 0.91, 3.63, 14.50, and 58.00 μM) were passed on to the chip for the measurement of changes in response unit (nm). The program comprises the stabilization of the baseline with the buffer A for 1 min, 6 min incubation of the BBP with the SA chip for immobilization, stabilizing the baseline again for 3 min, association enabling interaction between proteins and compounds for 4 min, and dissociation for 4 min followed by a regeneration step. […] Raw data were pre-processed, analyzed, and fitted using the 1:1 binding model in the manufacturer’s software (9.0, Pall ForteBio Corp, Menlo Park, CA, USA) to generate kinetic parameters.

PaFtfL F383A = PaFtfL F383A (Peptostreptococcus anaerobius, UniProt A0A379CIH2, F383A); format: binding, P. anaerobius; conditions: BLI
Experimental: as §1

PaFtfL Y229A = format: binding, P. anaerobius; conditions: BLI, allosteric site mutant
Experimental: as §1

PaFtfL [2] = target: T1, PaFtfL (Peptostreptococcus anaerobius, UniProt A0A379CIH2); test: Inhibition of FtfL enzymatic activity; format: biochemical; conditions: Inhibited by BBR (IC50), FtfL from Peptostreptococcus anaerobius, 20 nM enzyme
T1 sequence (A0A379CIH2 1-558): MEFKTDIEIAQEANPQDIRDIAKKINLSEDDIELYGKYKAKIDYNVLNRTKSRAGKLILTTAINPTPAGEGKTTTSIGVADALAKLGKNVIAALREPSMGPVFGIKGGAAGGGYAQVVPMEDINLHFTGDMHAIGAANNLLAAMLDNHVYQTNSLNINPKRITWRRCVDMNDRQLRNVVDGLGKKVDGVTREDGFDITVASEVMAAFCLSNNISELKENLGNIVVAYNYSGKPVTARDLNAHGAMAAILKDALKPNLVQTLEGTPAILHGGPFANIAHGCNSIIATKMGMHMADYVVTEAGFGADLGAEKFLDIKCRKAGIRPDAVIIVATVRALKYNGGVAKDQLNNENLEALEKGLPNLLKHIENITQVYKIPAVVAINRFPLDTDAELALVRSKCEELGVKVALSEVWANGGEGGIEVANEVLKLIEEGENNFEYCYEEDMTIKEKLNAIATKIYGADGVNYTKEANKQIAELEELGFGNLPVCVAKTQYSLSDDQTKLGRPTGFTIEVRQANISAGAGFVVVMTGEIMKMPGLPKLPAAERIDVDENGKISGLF
Experimental: (§2) The activities of the FtfL enzymes were measured according to the protocol described previously.
(§3) Then, the reaction was initiated by adding substrates (0.1 mM tetrahydrofolate, 2 mM MgCl2, 0.05 mM ATP, and 8 mM sodium formate).
(§4) The product was detected with a maximum absorbance at 350 nm (ε = 24.9 mM^−1 cm^−1) using FLUOstar OPTIMA (BMG LABTECH, Offenburgh, Germany). The reaction was performed at 30 °C. The control reaction was performed by replacing BBR with DMSO. […] Data analysis was performed in GraphPad Prism 7.0.

[3] = target: FtfL from Lactococcus lactis (Lactococcus lactis subsp. lactis, UniProt Q9CH07); test: Inhibition of FtfL enzymatic activity; format: biochemical
Experimental: as §2, §3, §4

[4] = target: FtfL from Bacteroides fragilis (Bacteroides fragilis, UniProt Q64U80); test: Inhibition of FtfL enzymatic activity; format: biochemical
Experimental: as §2, §3, §4

[5] = target: FtfL from Parabacteroides distasonis (Parabacteroides distasonis, UniProt A6LAR6); test: Inhibition of FtfL enzymatic activity; format: biochemical
Experimental: as §2, §3, §4

[6] = target: FtfL from Lactobacillus plantarum (Lactiplantibacillus plantarum, UniProt Q88W76); test: Inhibition of FtfL enzymatic activity; format: biochemical; conditions: 100 nM enzyme
Experimental: as §2, §3, §4

[7] = target: FtfL from Clostridium ljungdahlii (Clostridium ljungdahlii, UniProt D8GTX8); test: Inhibition of FtfL enzymatic activity; format: biochemical
Experimental: as §2, §3, §4

[8] = target: FtfL from Clostridium symbiosum (Clostridium symbiosum, UniProt E7GR72); test: Inhibition of FtfL enzymatic activity; format: biochemical
Experimental: as §2, §3, §4

[9] = system: FtfL from Clostridium sporogenes; test: Inhibition of FtfL enzymatic activity; format: biochemical; conditions: ns = no significance, not inhibited by BBR
Experimental: as §2, §3, §4

[10] = system: Streptococcus faecalis ATCC 19433; test: Growth inhibition of CRC pathogenic bacteria by BBR; conditions: S. faecalis ATCC 19433; 0.3 mM and 0.6 mM BBR
[11] = target: FtfL from Vibrio cholerae (Vibrio cholerae, UniProt Q9KLX7); test: Inhibition of FtfL enzymatic activity; format: biochemical
[12] = system: Lactobacillus bulgaricus BD 15; test: Effect of BBR on the growth of probiotics; conditions: L. bulgaricus BD 15
[13] = system: Lactobacillus fermentum CGMCC 1.1880; test: Effect of BBR on the growth of probiotics; conditions: L. fermentum CGMCC 1.1880
[14] = system: Peptostreptococcus anaerobius ATCC 27337; test: Growth inhibition of CRC pathogenic bacteria by BBR; conditions: P. anaerobius ATCC 27337; 0.3 mM and 0.6 mM BBR
[15] = target: FtfL from Clostridioides difficile (Clostridioides difficile, UniProt Q189R2); test: Inhibition of FtfL enzymatic activity; format: biochemical
[16] = system: Lactobacillus acidophilus ATCC 4356; test: Effect of BBR on the growth of probiotics; conditions: L. acidophilus ATCC 4356
hsMTHFD1 [17] = target: T2, hsMTHFD1 (Homo sapiens, UniProt P11586); conditions: BLI, 1:1 binding model
T2 construct: His6 tag with thrombin site of pET28a (inferred) (N); made in house; host or cells: E. coli BL21 (DE3)
Experimental: as §1

hsMTHFD1L [18] = target: T3, hsMTHFD1L (Homo sapiens, UniProt Q6UB35); conditions: BLI, 1:1 binding model
Experimental: as §1

[19] = system: Lactobacillus plantarum DSM 13171; test: Effect of BBR on the growth of probiotics; conditions: L. plantarum DSM 13171
[20] = target: FtfL from Clostridium perfringens (Clostridium perfringens, UniProt Q0TMI3); test: biochemical
[21] = system: Lactobacillus reuteri DSM 17938; test: Effect of BBR on the growth of probiotics; conditions: L. reuteri DSM 17938
[22] = system: Fusobacterium nucleatum ATCC 10953; test: Growth inhibition of CRC pathogenic bacteria by BBR; conditions: F. nucleatum ATCC 10953; 0.3 mM and 0.6 mM BBR
PaFtfL [23] = target: T1, PaFtfL; conditions: 40 μM BBR
[24] = target: FtfL from Fusobacterium nucleatum (Fusobacterium nucleatum, UniProt Q8RHF4); test: Inhibition of FtfL enzymatic activity; format: biochemical
PaFtfL [25] = target: T1, PaFtfL; set-up: species or system P. anaerobius; conditions: BLI, wildtype PaFtfL, immobilized BBP, 1:1 binding model
Experimental: as §1

hsMTHFD1L [26] = target: T3, hsMTHFD1L; test: Inhibition of hsMTHFD1L ligase activity; format: biochemical; conditions: 0.4 mM BBR
Experimental: (§5) Then, the reaction was initiated by adding substrates (2 mM tetrahydrofolate, 10 mM MgCl2, 40 mM sodium formate, and 5 mM ATP).
as §4

[27] = system: Clostridium symbiosum ATCC 14940; test: Growth inhibition of CRC pathogenic bacteria by BBR; conditions: C. symbiosum ATCC 14940; 0.3 mM and 0.6 mM BBR
hsMTHFD1 [28] = target: T2, hsMTHFD1; test: Inhibition of hsMTHFD1 ligase activity; format: biochemical; conditions: hsMTHFD1, 0.4 mM BBR
Experimental: as §5, §4

[29] = target: PaFtfL (P. anaerobius formate tetrahydrofolate ligase) (Peptostreptococcus anaerobius ATCC 27337); test: crystal structure; sitting drop vapour diffusion at 22 °C, 10 mg/ml protein; three crystal forms: apo, apo crystals soaked with 1 mM ATP, and protein mixed with 1 mM BBR; protomers A/B and C/D form two dimers that assemble into a tetramer

T3 sequence (Q6UB35 349-978 limits assumed): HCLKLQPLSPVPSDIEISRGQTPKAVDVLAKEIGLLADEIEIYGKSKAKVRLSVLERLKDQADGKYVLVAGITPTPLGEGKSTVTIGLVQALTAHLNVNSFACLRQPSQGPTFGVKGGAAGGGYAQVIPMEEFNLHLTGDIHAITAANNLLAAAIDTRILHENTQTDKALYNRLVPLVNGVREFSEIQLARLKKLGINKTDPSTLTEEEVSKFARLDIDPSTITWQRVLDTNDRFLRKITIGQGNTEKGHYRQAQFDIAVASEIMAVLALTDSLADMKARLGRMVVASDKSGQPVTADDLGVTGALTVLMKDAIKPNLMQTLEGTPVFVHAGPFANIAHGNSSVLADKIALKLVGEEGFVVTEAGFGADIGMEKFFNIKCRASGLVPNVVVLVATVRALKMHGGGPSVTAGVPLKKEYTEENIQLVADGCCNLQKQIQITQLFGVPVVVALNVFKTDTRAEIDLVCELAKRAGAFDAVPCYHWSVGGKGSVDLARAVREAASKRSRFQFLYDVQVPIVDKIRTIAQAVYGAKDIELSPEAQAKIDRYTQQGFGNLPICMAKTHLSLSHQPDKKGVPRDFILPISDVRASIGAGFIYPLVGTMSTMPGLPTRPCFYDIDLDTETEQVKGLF
T2 sequence (P11586 whole entry): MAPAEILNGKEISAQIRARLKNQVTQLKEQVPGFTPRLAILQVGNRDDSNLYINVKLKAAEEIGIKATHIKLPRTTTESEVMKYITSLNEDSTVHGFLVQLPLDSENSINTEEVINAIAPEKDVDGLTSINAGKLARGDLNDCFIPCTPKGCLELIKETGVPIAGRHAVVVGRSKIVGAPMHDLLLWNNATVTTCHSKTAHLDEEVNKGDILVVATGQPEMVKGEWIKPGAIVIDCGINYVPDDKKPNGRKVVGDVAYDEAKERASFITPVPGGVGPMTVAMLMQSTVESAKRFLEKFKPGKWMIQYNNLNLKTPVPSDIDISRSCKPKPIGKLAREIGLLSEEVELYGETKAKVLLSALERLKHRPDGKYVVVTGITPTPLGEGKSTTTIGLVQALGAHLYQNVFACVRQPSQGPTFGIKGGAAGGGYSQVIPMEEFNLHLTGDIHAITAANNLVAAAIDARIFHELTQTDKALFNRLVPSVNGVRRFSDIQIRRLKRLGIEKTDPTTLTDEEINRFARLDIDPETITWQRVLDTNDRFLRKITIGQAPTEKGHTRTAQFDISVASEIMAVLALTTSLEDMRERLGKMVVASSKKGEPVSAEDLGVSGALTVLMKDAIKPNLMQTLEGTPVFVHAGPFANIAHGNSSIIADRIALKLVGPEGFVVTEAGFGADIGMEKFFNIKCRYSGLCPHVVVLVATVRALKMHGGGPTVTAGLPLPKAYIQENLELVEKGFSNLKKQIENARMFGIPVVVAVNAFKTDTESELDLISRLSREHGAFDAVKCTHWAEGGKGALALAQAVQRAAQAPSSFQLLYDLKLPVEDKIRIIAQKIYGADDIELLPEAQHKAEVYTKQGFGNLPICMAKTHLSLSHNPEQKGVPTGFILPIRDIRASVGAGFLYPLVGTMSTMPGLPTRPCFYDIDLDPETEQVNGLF
Chain of FtfL from Clostridium ljungdahlii (D8GTX8 entry or part of it): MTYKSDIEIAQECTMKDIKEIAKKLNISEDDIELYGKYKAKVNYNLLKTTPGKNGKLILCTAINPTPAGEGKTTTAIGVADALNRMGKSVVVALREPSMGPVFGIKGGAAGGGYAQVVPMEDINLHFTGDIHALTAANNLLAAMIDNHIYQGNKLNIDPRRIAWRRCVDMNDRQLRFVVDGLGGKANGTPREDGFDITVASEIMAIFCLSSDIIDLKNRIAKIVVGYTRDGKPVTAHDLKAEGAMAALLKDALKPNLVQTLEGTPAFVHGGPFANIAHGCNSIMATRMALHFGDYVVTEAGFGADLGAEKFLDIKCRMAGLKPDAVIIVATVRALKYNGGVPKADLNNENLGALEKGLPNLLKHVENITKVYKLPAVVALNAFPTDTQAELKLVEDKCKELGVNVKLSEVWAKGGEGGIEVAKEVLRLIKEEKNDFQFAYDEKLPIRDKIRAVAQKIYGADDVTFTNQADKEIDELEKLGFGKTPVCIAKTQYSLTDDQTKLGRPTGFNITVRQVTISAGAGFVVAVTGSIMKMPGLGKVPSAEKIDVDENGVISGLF
Chain of FtfL from Lactobacillus plantarum (Q88W76 whole entry): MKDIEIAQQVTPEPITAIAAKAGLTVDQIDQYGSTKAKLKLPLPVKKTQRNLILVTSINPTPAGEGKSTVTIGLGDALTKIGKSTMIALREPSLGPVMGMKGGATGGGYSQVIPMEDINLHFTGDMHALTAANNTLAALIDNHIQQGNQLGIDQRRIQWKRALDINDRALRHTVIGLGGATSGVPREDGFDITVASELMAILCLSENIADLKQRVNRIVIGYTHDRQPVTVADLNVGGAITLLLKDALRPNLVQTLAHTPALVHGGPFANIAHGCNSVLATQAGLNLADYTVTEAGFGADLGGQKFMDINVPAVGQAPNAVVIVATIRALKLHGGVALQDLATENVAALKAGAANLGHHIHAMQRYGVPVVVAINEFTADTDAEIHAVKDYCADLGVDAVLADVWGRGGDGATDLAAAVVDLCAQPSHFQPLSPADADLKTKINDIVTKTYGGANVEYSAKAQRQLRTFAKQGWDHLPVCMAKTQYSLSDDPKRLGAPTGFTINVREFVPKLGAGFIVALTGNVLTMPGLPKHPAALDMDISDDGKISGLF
Chain of FtfL from Lactococcus lactis (Q9CH07 whole entry): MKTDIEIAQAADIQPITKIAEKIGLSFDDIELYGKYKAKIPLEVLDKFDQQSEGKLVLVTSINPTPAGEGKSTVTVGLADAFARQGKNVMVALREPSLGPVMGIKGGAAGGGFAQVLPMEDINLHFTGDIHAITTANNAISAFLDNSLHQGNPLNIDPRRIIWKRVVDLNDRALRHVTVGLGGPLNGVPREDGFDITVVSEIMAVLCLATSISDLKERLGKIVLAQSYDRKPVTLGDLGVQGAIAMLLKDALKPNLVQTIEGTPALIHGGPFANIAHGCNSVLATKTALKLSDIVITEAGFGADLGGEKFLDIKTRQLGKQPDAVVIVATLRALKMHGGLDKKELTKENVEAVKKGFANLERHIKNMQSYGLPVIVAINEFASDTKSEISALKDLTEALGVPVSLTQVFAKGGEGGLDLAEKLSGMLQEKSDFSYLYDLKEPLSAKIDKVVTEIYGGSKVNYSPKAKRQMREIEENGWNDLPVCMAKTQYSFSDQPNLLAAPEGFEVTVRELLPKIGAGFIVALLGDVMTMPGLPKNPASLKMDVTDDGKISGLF

## COc1ccc2cc3[n+](cc2c1OC)CCc1cc2c(cc1-3)OCO2 [BBR, Berberine]
[1]
  effect on bacterial growth: dose-dependent inhibition; also recorded: inhibits the growth
PaFtfL Y229A/F383A/W411A
  binding affinity of BBR with PaFtfL Y229A/F383A/W411A: non-detectable
PaFtfL F383A; F383A
  reduction of binding affinity versus wildtype PaFtfL: 34 fold
PaFtfL F383A; active site mutant
  Kd: 23.1 µM
PaFtfL Y229A
  binding affinity of BBR with PaFtfL Y229A: The affinity is too weak to fit
PaFtfL [2]
  IC50: 62 µM and 62.3 µM
[3]
  IC50: 118 ± 18.5 µM
[4]
  IC50: 105 ± 69.8 µM
[5]
  IC50: > 200 µM
[6]
  IC50: > 200 µM
[7]
  IC50: 83.8 ± 10 µM
[8]
  IC50: 129 ± 17.1 µM
[9]
  Inhibited by BBR (IC50): ns
[10]
  effect on bacterial growth: dose-dependent inhibition; also recorded: inhibits the growth
[11]
  IC50: 130 ± 12.3 µM
[12]
  effect on bacterial growth: inhibits growth
[13]
  effect on bacterial growth: little effect
[14]
  effect on bacterial growth: dose-dependent inhibition; also recorded: inhibits the growth
[15]
  IC50: 158 ± 68.7 µM
[16]
  effect on bacterial growth: promotes growth
hsMTHFD1 [17]
  Kd: 2.3 µM
hsMTHFD1L [18]
  Kd: 0.158 µM
[19]
  effect on bacterial growth: little effect
[20]
  IC50: 105 ± 3.15 µM
[21]
  effect on bacterial growth: little effect
[22]
  effect on bacterial growth: dose-dependent inhibition; also recorded: inhibits the growth
PaFtfL [23]; substrate ATP
  apparent Kcat of PaFtfL: 16.7 ± 0.83 s⁻¹
  apparent Vmax of PaFtfL: 0.010 ± 0.0005 mM/min
PaFtfL [23]; substrate THF
  apparent Kcat of PaFtfL: 78.3 ± 6.7 s⁻¹
  apparent Vmax of PaFtfL: 0.047 ± 0.004 mM/min
[24]
  IC50: 106 ± 27 µM
PaFtfL [25]
  Kd: 0.674 µM
hsMTHFD1L [26]
  decrease of ligase enzyme activity: 36%
[27]
  effect on bacterial growth: dose-dependent inhibition; also recorded: inhibits the growth
hsMTHFD1 [28]
  decrease of ligase enzyme activity: 58%

## PaFtfL (P. anaerobius formate tetrahydrofolate ligase) (enzyme)
[29]
  stoichiometry N: 4
